Source: US20240131173A1, “PROTACS WITH TRANSCRIPTION FACTOR TARGETING MOIETIES” (Beth Israel Deaconess Medical Center, Inc., priority 2021, published 2024)
Entries after “also recorded” stand apart in the source; their conditions may differ.

Experiments:
p65 [1] = biological target: T1, p65 (Homo sapiens, UniProt Q04206); test: Streptavidin-biotin pulldown / competition assay of NF-κB-ODN with Flag-p65; assay type: binding; settings: excess competitor
Protocol: To determine whether NF-κB-ODN binds with NF-κB properly, we also synthesized a biotin-modified version of NF-κB-ODN (hereafter termed as Biotin-NF-κB-ODN, FIGS. 3A-3C).
HEK293T cells that ectopically expressed either Flag-p65 or HAE2F1 were lysed by EBC buffer (50 mM Tris pH 7.5, 120 mM NaCl, 0.5% NP-40) supplemented with protease inhibitors (Pierce) and phosphatase inhibitors (phosphatase inhibitor cocktail set I and II, Calbiochem). The protein concentrations of the lysates were measured using the Bio-Rad protein assay reagent on a Beckman Coulter DU-800 spectrophotometer. The cell lysates (1 mg) were further incubated with biotin-ODN at 4 °C for 3 hours, followed by adding 10 μL of Streptavidin agarose beads (Thermo Fisher) for another 1 hour. The beads were washed 4 times with NETN buffer (100 mM NaCl, 20 mM Tris-Cl, pH 8.0, 0.5 mM EDTA, 0.5% NP-40), boiled in SDS loading buffer and further separated by 10% SDS-PAGE and blotted with individual antibody.
Target sequence in this assay (Q04206 whole entry): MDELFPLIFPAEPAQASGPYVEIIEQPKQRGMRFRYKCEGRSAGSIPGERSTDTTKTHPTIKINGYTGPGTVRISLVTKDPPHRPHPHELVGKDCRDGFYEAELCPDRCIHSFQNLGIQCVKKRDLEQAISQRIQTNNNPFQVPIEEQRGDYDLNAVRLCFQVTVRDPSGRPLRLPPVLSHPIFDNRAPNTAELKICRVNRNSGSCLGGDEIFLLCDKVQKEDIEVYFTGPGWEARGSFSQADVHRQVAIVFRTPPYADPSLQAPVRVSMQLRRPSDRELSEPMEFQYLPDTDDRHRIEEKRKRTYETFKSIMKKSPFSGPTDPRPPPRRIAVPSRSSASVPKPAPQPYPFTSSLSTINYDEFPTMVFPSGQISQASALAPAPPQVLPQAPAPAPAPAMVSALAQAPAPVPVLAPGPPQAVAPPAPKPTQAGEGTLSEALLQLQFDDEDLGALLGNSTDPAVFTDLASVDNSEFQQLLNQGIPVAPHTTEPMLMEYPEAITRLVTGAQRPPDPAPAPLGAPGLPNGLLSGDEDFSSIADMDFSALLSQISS

[2] = biological target: T2, VHL E3-PROTAC-p65 ternary complex (Homo sapiens, UniProt P40337+Q04206); test: GST pulldown assay of VHL E3 ligase complex and p65 with TF-PROTAC; assay type: binding; settings: GST-VHL complex from E. coli, HEK293T lysate with Flag-p65, in vitro
T2 construct: made in house; host or cells: E. coli BL21(DE3) for the GST-VHL/Elongin B/C complex; HEK293T lysate for Flag-p65
Excerpt: Furthermore, dNF-κB is capable of recruiting VHL E3 ubiquitin ligase to POI, NF-κB. […] However, dNF-κB obtained in current stage could not efficiently promote the degradation of p65 in cells, which prompted further optimization of the length of linker between the VHL ligand and DNA oligomer moieties for achieving efficient destruction of NF-κB in cells.
(§1) pGEX-GST-VHL/ElonginB construct was kindly gift from Dr. William Kaelin, Jr. at Dana-Farber Cancer Institute, Harvard Medical School. pGEX-GST-Elongin C plasmid was generated by subcloning Elongin C CDS into the BamHI and Xhol sites of pGEX-4T1-GST vector. The GST-VHL/ElonginB/C complex was purified as described 43. Briefly, BL21(DE3) E. coli was cotransfected with pGEX-GST-VHL/ElonginB and pGEX-GSTElonginC plasmid. Protein expression was induced by 100 μM isopropyl beta-D-thiogalactopyranoside (IPTG, Fisher Scientific) at 18° C.overnight. Then, the bacterial culture was centrifuged and sonicated in PBS buffer with protease inhibitor cocktail. Protein lysates were further purified with glutathione-Sepharose beads (GE17-0756-05) and washed with PBS for 5 times.
(§2) Glutathione-Sepharose beads loaded with GST-VHL E3 ligase complex were incubated at 4° C. with cell lysate derived from HEK293T cells that ectopic transfected with individual transfection factor. After incubation for 3 hours, TF-PROTACs were added into the mixture for another 2 hours, followed by wash with NETN buffer for 3 times. The pulldown products were further separated by 10% SDS-PAGE and blotted for indicated proteins.

p65 [3] = biological target: T3, p65 (Homo sapiens, UniProt P19838+Q04206); test: Western blot of p65 in HeLa cells transfected with TF-PROTAC; assay type: cell-based; settings: 12 hours, dNF-κB #1-#18 compared
T3 construct: endogenous in cells; host or cells: HeLa
Protocol: (§3) Human embryonic kidney 293T (HEK293T) and HeLa cells were maintained in Dulbecco's Modified Eagle's Medium (DMEM) containing 10% fetal bovine serum (FBS), 100 Units/mL of penicillin and 100 μg/mL streptomycin. For ectopic expression of transcription factors, Flag-p65 and HA-E2F1 were transfected into HEK293T cells and harvested for lysis 48 hours after transfection. For TF-PROTACs treatment, HeLa cells in 12-well plate were transfected with individual TF-PROTAC for 12 hours, followed by harvest for western blot analysis. […] For depletion of endogenous VHL E3 ligase, two sgRNA for VHL E3 ligase were synthesized and inserted into lenti-CRISPR-V2 construct 40. The sgVHL lentivirus were generated in HEK293T cells as previously described 41-42 for infection of HeLa cells overnight, followed by selection with puromycin for 72 h.
Cells were lysed in EBC buffer supplemented with protease inhibitors cocktail and phosphatase inhibitors, and the protein concentrations were measured as described above. The lysates (40 ug protein) were then resolved by 10% SDS-PAGE at 130 V for 80 min and immunoblotted with indicated antibodies at 4° C. overnight, washed 4 times with Tris-buffered saline with 0.1% Tween-20 (TBST), incubated with secondary antibody for 1 hour at room temperature, and then washed 4 times with TBST buffer. Anti-p65 (#8742, 1:1,000) and E2F1 (#3742, 1:500) antibodies were purchased from Cell Signaling Technologies. Anti-HA antibody (#901513, 1:1,000) was purchased from Biolegend. Anti-Flag (F3165, 1:5,000), anti-vinculin antibody (V-4505, 1:50,000), peroxidase-conjugated anti-mouse secondary antibody (A-4416, 1:3,000) and peroxidase-conjugated anti-rabbit secondary antibody (A-4914, 1:3,000) were purchased from Sigma. All primary antibodies were diluted in 5% bovine serum albumin (BSA) in TBST buffer, and secondary antibodies were diluted in 5% non-fat milk in TBST buffer.

p65 [4] = biological target: T1, p65; test: In vivo ubiquitination assay of p65 (Ni-NTA pulldown); assay type: cell-based; settings: HEK293T cells, Flag-p65 24 hours, then dNF-κB 12 hours
Protocol: Denatured in vivo ubiquitination assays were performed as previously described 41. Briefly, HEK293T cells were firstly transfected with Flag-p65 or HA-E2F1 for 24 hours, followed by additional transfection of individual TF-PROTAC for another 12 hours. Before been harvested, HEK293T cells were treated with 30 μM of MG132 for 4 hours. After having been harvested in denatured buffer A (6 M guanidine-HCI, pH 8.0, 0.1 M Na2HPO4/NaH2PO4, and 10 mM imidazole) and sonication for 10 seconds, cell lysis was incubation with Ni-nitrilotriacetic acid (NTA) matrices under rotation for 3 hours at room temperature. The pulldown products were washed sequentially twice in buffer A, twice in buffer A/TI mixture (buffer A, buffer TI=1:3, v/v), and once in buffer TI (25 mM tris-HCl, pH 6.8, and 20 mM imidazole). The ubiquitinated proteins were finally separated by 7% SDS-PAGE and blotted with individual antibody.
Target sequence in this assay (Q04206 whole entry): as above

[5] = biological target: T4, VHL E3 ubiquitin ligase and E2F1 transcription factor (Homo sapiens, UniProt P40337+Q01094+Q14186); test: GST pulldown assay of VHL E3 ligase complex and E2F1 with TF-PROTAC; assay type: binding; settings: in vitro pulldown
T4 construct: made in house; host or cells: E. coli BL21(DE3) for the GST-VHL/Elongin B/C complex; HEK293T lysate for the transfected transcription factor
Protocol: as §1, §2

HeLa cells [6] = test: Cell growth curve assay (cell number); assay type: cell-based, human; settings: 10 ug/mL
Protocol: (§4) For cell growth curve assay, HeLa cells (10, 000/well) in 12-well plate were transfected with individual TF-PROTAC, then the cells were trypsined and the cell number were counted at indicated time. For the clonal formation assay, HeLa cells were transfected with individual TF-PROTAC for 12 hours, followed by further plated into 6-well plate (1,000/well). Three weeks later, the cells were fixed in fixation buffer (acetic acid: methanol=1:7) and stained with 0.4% crystal violet in 20% ethanol. Then clonal number were quantified by Image J software. As various changes can be made in the above-described subject matter without departing from the scope and spirit of the present disclsoure, it is intended that all subject matter contained in the above description, or defined in the appended claims, be interpreted as descriptive and illustrative. Many modifications and variations of the present disclosure are possible in light of the above teachings. Accordingly, the present description is intended to embrace all such alternatives, modifications and variances which fall within the scope of the appended claims.

HeLa cells [7] = test: Clonal (colony) formation assay; assay type: cell-based, human; settings: HeLa cells
Protocol: as §4

p65 [8] = biological target: T1, p65; test: Western blot of p65 in HeLa cells transfected with TF-PROTAC; assay type: cell-based; parameters: endogenous in cells; host or cells: HeLa; settings: 10 uM MG132
Protocol: as §3
Target sequence in this assay (Q04206 whole entry): as above
Target sequence in this assay (P19838 1-433 limits assumed, further chain): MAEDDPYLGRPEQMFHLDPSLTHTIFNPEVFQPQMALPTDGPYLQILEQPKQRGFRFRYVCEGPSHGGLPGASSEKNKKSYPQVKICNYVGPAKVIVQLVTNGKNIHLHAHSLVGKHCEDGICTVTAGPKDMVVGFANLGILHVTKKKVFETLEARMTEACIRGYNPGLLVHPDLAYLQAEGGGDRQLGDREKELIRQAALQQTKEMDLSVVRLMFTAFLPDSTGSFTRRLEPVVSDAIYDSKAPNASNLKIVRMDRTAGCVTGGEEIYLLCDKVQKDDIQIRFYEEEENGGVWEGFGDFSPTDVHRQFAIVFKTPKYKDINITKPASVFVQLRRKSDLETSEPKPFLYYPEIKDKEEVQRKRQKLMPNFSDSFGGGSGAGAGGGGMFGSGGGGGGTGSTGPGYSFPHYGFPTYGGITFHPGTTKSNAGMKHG
Cells were lysed in EBC buffer supplemented with protease inhibitors cocktail and phosphatase inhibitors, and the protein concentrations were measured as described above. The lysates (40 ug protein) were then resolved by 10% SDS-PAGE at 130 V for 80 min and immunoblotted with indicated antibodies at 4° C. overnight, washed 4 times with Tris-buffered saline with 0.1% Tween-20 (TBST), incubated with secondary antibody for 1 hour at room temperature, and then washed 4 times with TBST buffer. […]

T3 sequence (Q04206 whole entry): as the sequence (Q04206 whole entry) above
T3 sequence (P19838 1-433 limits assumed): as the sequence (P19838 1-433 limits assumed, further chain) above
T2 sequence (P40337 whole entry): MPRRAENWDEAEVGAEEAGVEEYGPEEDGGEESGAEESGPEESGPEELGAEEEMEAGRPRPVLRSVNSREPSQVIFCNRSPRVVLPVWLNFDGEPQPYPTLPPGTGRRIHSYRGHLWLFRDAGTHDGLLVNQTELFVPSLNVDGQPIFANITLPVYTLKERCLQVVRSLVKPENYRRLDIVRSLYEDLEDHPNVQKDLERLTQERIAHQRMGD
T2 sequence (Q15370 whole entry partner): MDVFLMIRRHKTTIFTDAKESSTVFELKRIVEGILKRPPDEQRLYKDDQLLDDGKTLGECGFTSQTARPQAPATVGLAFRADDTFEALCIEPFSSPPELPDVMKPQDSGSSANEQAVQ
T2 sequence (Q15369 whole entry partner): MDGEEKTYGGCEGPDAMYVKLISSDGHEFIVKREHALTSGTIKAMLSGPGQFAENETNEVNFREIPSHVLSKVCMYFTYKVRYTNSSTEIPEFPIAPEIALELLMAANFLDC
T2 sequence (Q04206 whole entry): as the sequence (Q04206 whole entry) above
T4 sequence (P40337 whole entry): as the sequence (P40337 whole entry) above
T4 sequence (Q15370 whole entry partner): as the sequence (Q15370 whole entry partner) above
T4 sequence (Q15369 whole entry partner): as the sequence (Q15369 whole entry partner) above
T4 sequence (Q01094 whole entry): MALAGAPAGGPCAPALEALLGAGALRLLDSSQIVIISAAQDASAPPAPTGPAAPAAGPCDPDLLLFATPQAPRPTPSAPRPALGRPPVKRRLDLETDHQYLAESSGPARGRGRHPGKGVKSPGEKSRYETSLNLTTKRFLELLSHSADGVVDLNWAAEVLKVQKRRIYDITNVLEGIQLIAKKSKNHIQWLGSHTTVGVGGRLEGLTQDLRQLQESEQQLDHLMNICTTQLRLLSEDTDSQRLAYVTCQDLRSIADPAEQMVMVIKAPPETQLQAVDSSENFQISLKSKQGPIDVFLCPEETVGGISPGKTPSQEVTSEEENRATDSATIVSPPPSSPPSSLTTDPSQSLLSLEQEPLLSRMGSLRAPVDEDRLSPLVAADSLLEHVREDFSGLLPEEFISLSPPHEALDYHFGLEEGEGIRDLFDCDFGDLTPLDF
T4 sequence (Q14186 whole entry): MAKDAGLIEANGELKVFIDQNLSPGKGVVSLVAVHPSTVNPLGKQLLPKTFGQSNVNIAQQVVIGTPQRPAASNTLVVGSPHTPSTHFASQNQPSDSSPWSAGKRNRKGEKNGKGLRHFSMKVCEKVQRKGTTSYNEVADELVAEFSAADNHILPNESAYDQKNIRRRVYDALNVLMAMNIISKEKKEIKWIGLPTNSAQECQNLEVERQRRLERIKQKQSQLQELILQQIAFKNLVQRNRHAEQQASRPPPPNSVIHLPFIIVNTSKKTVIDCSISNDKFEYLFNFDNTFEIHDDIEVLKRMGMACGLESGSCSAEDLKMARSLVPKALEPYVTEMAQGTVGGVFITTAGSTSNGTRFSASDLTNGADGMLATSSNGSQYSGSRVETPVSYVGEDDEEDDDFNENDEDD

dNF-κB #1 (TGGGGACTTTCCAGTTTCTGGAAAGTCCCCA; DNA, backbone and methylation of C not given here; further chemistry not fully specified)
competition with Biotin-NF-κB-ODN for binding to p65 (p65 [1]): competed with Biotin NF-κB for binding to RelA/p65
VHL E3 ligase-p65 binding (ternary complex) induced by PROTAC [2]: induced the VHL E3-PROTAC-p65 ternary complex formation

dNF-κB #4 (TGGGGACTTTCCAGTTTCTGGAAAGTCCCCA; VHL ligand conjugate via C4 linker, further chemistry not given here)
VHL E3 ligase-p65 binding (ternary complex) induced by PROTAC [2]: recruited the binding between the VHL E3 ubiquitin ligase and p65 in vitro
p65 signal / degradation efficiency in western blot (p65 [3]): lowest p65 signal
ubiquitination of p65 in cells (p65 [4]): lead to the ubiquitination of p65 in cells

dE2F #15 (chain 1 CTAGATTTCCCGCG; chain 2 CTAGCGCGGGAAAT; DNA, backbone and methylation of C not given here; further chemistry not fully specified)
binding between VHL E3 ubiquitin ligase and E2F1 recruited by PROTAC [5]: recruited the binding between the VHL E3 ubiquitin ligase and E2F1 transcription factor in vitro

dNF-κB #7 (TGGGGACTTTCCAGTTTCTGGAAAGTCCCCA; VHL ligand conjugate via C7 linker, further chemistry not given here)
VHL E3 ligase-p65 binding (ternary complex) induced by PROTAC [2]: recruited the binding between the VHL E3 ubiquitin ligase and p65 in vitro
p65 signal / degradation efficiency in western blot (p65 [3]): lowest p65 signal
ubiquitination of p65 in cells (p65 [4]): lead to the ubiquitination of p65 in cells

dNF-κB #15 (TGGGGACTTTCCAGTTTCTGGAAAGTCCCCA; decoy; VHL ligand conjugate via PEG2 linker, further chemistry not given here)
VHL E3 ligase-p65 binding (ternary complex) induced by PROTAC [2]: recruited the binding between the VHL E3 ubiquitin ligase and p65 in vitro
p65 signal / degradation efficiency in western blot (p65 [3]): lowest p65 signal; also recorded: best degradation efficiency
ubiquitination of p65 in cells (p65 [4]): lead to the ubiquitination of p65 in cells
proliferation of HeLa cells (cell number) (HeLa cells [6]): repressed the proliferation of HeLa cells
tumorigenesis ability (colony formation) (HeLa cells [7]): inhibited
degradation of endogenous p65 under proteasome inhibitor MG132 (p65 [8]): blocked the degradation of endogenous p65

5′-TGGGGACTTTCCAGTTTCTGGAAAGTCCCCA-3′ (chemistry not given here) [NF-κB-ODN, reference compound]
competition with Biotin-NF-κB-ODN for binding to p65 (p65 [1]): competed with Biotin-NF-κB-ODN for the binding with p65
tumorigenesis ability (colony formation) (HeLa cells [7]): not

dNF-κB #18 (TGGGGACTTTCCAGTTTCTGGAAAGTCCCCA; decoy; VHL ligand conjugate via PEG5 linker, further chemistry not given here)
VHL E3 ligase-p65 binding (ternary complex) induced by PROTAC [2]: recruited the binding between the VHL E3 ubiquitin ligase and p65 in vitro
p65 signal / degradation efficiency in western blot (p65 [3]): lowest p65 signal
ubiquitination of p65 in cells (p65 [4]): lead to the ubiquitination of p65 in cells

N3-NF-κB-ODN: azide modification version of NF-κB-ODN, azide group on the 5′ end through the 5′ amino modifier C6 (TGGGGACTTTCCAGTTTCTGGAAAGTCCCCA; chemistry not fully specified) [Compound N3-NF-κB-ODN]
competition with Biotin-NF-κB-ODN for binding to p65 (p65 [1]): competed with Biotin-NF-κB-ODN for the binding with p65
